# Measurements as given in publication PMC11514582, “Leveraging the Aggregated Protein Dye YAT2150 for Malaria Chemotherapy” (Pharmaceutics, 2024).
# Where two headings read alike, the source gives them in different places.
# Assays:
# HUVEC = conditions: cited from earlier work
# [1] = tested on: MCF7 human breast adenocarcinoma; conditions: cited from earlier work
# [2] = cited from earlier work
# [3] = Bidirectional permeability in Caco-2 cell monolayer; conditions: human
# [4] = tested on: P. berghei ookinete development; assay: Ex vivo gametocyte-to-ookinete transition inhibition (ookinete maturation) assay; assay type: cell-based, Plasmodium berghei; conditions: up to a concentration of 2 µM
# Description: Eight days before ookinete production, 100 µL of a red blood cell (RBC) pellet containing the Plasmodium berghei circumsporozoite protein and thrombospondin-related adhesive protein (TRAP)-related protein (CTRP)-green fluorescent protein (GFP) strain (CTRP-GFP, which expresses GFP when reaching ookinete stage, kindly provided by Inga Siden-Kiamos) in cryopreservation solution (RBC pellet:RPMI:30% glycerol in water, 1:1:2) was administered intraperitoneally (i.p.) to a BALB/c mouse (Charles River Laboratories, Wilmington, MA, USA). […] The effect of drugs on gametocyte-to-ookinete conversion was assessed in three independent replicas by plating 120 µL of each culture treated with serial dilutions of the compounds in 96-well plates and incubated for 24 h at 21 °C with orbital shaking at 50 rpm (modified from). Finally, samples diluted 1:100 in PBS were analyzed in an LSRFortessa flow cytometer (BD Biosciences, Franklin Lakes, NJ, USA) set up with the 4 lasers, 20 parameters standard configuration. The GFP positive cell population was counted (λexcitation: 488 nm; λemission: 525/40 nm) using BD FACSDiva software 6.1.3 (BD Biosciences) for data collection and Flowing Software 2.5.1 (Turku Center for Biotechnology, Turku, Finland) for analysis.
# [5] = tested on: P. falciparum asexual blood stages; conditions: cited from earlier work
# CYP1A2 = target: T1, CYP1A2 (Homo sapiens, UniProt P05177); assay: in vitro
# T1 sequence (P05177 1-516): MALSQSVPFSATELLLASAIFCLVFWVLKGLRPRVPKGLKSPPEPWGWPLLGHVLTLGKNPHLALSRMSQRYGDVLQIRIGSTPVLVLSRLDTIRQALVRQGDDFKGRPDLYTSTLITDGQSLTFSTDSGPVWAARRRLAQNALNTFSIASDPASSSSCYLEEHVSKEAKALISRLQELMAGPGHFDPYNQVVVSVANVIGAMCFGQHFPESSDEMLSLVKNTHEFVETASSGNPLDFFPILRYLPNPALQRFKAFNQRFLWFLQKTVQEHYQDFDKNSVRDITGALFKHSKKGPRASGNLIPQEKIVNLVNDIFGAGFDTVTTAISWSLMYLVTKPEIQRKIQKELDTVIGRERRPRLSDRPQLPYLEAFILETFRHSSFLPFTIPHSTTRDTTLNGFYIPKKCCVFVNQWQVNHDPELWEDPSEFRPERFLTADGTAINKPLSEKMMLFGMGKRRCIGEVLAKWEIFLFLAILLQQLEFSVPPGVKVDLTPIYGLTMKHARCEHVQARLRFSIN
# [6] = Human plasma protein binding (Rapid Equilibrium Dialysis); assay type: in vitro ADME; conditions: pH 7.2, RED, 4 h at 37 °C
# Description: The assay was carried out by Rapid Equilibrium Dialysis (RED). The compounds were dissolved at 5 μM in human plasma and added to the corresponding insert of the RED device (Thermo Fisher Scientific, Inc., Waltham, MA, USA), and dialysis was performed for 4 h at 37 °C in […], 25 mM tris-HCl, pH 7.2 (Tris BupH^TM, Thermo Fisher Scientific, Inc.). Then, 50-µL aliquots from each chamber were transferred to empty vials, to which 50 µL of dialysis buffer was added. As control, 50 µL of plasma was mixed with 50 µL of buffer. Three hundred µL of acetonitrile was added to all the samples, which were analyzed by ultra-performance liquid chromatography with tandem mass spectrometry as previously described.
# [7] = human, hepatocytes
# CYP2D6 = CYP2D6 (Homo sapiens, UniProt P10635); assay: Cytochrome inhibition assay CYP2D6
# CYP2D6, sequence (P10635 whole entry): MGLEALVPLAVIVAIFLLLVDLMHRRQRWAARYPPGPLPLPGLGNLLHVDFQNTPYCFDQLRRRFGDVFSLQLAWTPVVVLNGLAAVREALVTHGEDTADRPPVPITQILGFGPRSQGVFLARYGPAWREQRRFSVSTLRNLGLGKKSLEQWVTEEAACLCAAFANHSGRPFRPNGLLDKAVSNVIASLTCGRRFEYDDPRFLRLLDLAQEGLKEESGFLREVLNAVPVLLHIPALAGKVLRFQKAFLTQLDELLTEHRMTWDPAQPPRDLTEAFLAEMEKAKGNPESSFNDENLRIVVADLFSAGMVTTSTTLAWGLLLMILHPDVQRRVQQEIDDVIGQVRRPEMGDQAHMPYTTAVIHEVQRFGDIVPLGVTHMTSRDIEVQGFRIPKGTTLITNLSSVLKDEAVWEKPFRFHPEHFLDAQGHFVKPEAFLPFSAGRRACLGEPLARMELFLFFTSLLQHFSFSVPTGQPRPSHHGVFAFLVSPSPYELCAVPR
# CYP2C9 = CYP2C9 (Homo sapiens, UniProt P11712); assay: in vitro
# CYP2C9, sequence (P11712 whole entry): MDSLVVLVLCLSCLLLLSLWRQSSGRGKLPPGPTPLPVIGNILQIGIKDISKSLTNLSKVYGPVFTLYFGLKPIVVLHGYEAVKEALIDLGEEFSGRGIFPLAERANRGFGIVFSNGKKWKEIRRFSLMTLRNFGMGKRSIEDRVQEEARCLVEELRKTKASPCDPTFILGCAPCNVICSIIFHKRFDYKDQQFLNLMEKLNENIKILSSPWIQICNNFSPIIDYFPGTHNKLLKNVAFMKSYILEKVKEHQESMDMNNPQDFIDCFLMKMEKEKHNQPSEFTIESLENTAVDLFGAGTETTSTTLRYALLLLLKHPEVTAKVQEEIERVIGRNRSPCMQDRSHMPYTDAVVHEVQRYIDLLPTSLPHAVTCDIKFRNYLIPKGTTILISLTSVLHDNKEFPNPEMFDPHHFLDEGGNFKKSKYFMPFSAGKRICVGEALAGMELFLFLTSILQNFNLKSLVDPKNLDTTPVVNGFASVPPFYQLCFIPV
# [8] = tested on: protein aggregation in P. falciparum cultures; assay: ThT protein aggregation assay in P. falciparum cultures; assay type: cell-based, Plasmodium falciparum; conditions: treated for 4 h at the IC50
# Description: After this incubation, 9 mL of culture was removed and subjected to a second Percoll treatment to pellet the parasitized red blood cells, which were resuspended in 50 μL of lysis buffer, consisting of 4.5 mg/mL NaCl in H2O supplemented with 1× cOmplete^TM protease inhibitor cocktail (Roche, Basel, Switzerland), and treated as described elsewhere [13]. […] Only those samples with parasitemias between 30 and 70% relative to the control were considered for ThT analysis.
# [9] = tested on: P. falciparum asexual blood stages; assay: microbe, parasite or virus in culture; conditions: Plasmodium falciparum
# Description: The asexual blood stages of P. falciparum parasites of the 3D7 strain (Malaria Research and Reference Reagent Resource Center, Manassas, VA, USA) were cultured in group B human RBCs at 3% hematocrit, which was kept throughout the experiments, and incubated in RPMIc. Parasites were maintained at 37 °C under an atmosphere of 5% O2, 5% CO2, and 90% N2. […] The parasites were then cultured under standard conditions for 48 h, allowing for a complete replication cycle. After the incubation period, 3 µL of culture from each well was mixed with 197 µL of PBS containing 0.1 µM Syto 11 (Thermo Fisher Scientific, Inc.) to obtain a final concentration of 1 × 10^6 to 10 × 10^6 cells/mL. Parasitemia levels were measured using an LSRFortessa flow cytometer equipped with a standard configuration of four lasers and 20 parameters. Single-cell populations were identified on a forward-side scatter plot. […] The inhibition data were then transformed using sigmoidal fitting to determine IC50.
# For stage arrest assays, P. falciparum cultures were tightly synchronized in schizont stages by repeated treatment with 70% Percoll (GE Healthcare, Chicago, IL, USA) [26, 27]. […] Pictures were taken with a Nikon Eclipse 50i microscope equipped with a DS-Fi1 camera (Nikon Corporation, Tokyo, Japan).
# [10] = tested on: P. falciparum gametocytes; conditions: cited from earlier work
# [11] = tested on: liver stages of P. berghei in Huh7; conditions: read-out: IC50 against liver stages of P. berghei; cited from earlier work
# [12] = 3D7, read-out: in vitro IC50 as determined in our experimental setting
compound,measurement,setting,value
N.N.[Cl][Pt][Cl] [Cisplatin],CC50,HUVEC,2350 ± 40 nM
same,CC50,[1],16700 nM
COc1cc2c(c(OC)c1OC)-c1ccc(OC)c(=O)cc1[C@@H](NC(C)=O)CC2 [Colchicine],Papp AB reported,[2]; ref 24 (supplement list),1.3 ×10⁻⁶ cm/s
same,Papp BA reported,[2]; ref 24 (supplement list),5.4 ×10⁻⁶ cm/s
same,Papp,[3]; Caco-2,0.26 ± 0.02 ×10⁻⁶ cm/s
same,Papp B→A,[3]; Caco-2,8.98 ± 0.47 ×10⁻⁶ cm/s
same,efflux ratio,"[3]; Caco-2, Transport through Caco-2 Efflux ratio, reference compounds, tested in parallel",35.3 ± 3
same,efflux ratio,"[3]; Caco-2, efflux ratios of reference compounds, as quoted in text from Supplementary Table S2",33
COc1cc2c(cc1OC)C(=O)C(CC1CCN(CCCNc3c4c(nc5cc(Cl)ccc35)CCCC4)CC1)C2 (stereo not shown) [DONE3TCl],effect on ookinete development,[4],much less significant effect
same,IC50,[5]; read-out: IC50 in in vitro P. falciparum asexual blood stage cultures,~80 nM
C[C@]12CC[C@@H]3c4ccc(OS(=O)(=O)O)cc4CC[C@H]3[C@@H]1CCC2=O [Estrone-3-sulfate],"Transport through Caco-2 AB (Papp), reference compounds",,0.44 ± 0.03 ×10⁻⁶ cm/s
same,"Transport through Caco-2 Efflux ratio, reference compounds",,26.5±3.5
same,"Transport through Caco-2 BA (Papp), reference compounds",human,11 ± 0.94 ×10⁻⁶ cm/s
same,Papp AB reported,[2]; not told,2.7 ×10⁻⁶ cm/s
same,Papp BA reported,[2]; not told,17.5 ×10⁻⁶ cm/s
Cc1nc2c([nH]1)c(=O)n(C)c(=O)n2Cc1ccco1 [Furafylline],inhibition at 2 µM,CYP1A2,61%
O=C1NC(=O)C(c2ccccc2)(c2ccccc2)N1 [Phenytoin],"fraction unbound at 4 h, 5 μM",[6],0.167
COc1cc2nc(N3CCN(C(=O)c4ccco4)CC3)nc(N)c2cc1OC [Prazosin],"Hepatocyte stability (remaining after 2 h), reference compounds",[7],70.2%
same,solubility,physchem,63.8 µM
CC(=O)[C@H]1CC[C@H]2[C@@H]3CCC4=CC(=O)CC[C@]4(C)[C@H]3CC[C@]12C [Progesterone],solubility,Solubility in PBS,8 µM
C=C[C@H]1C[N@@]2CC[C@H]1C[C@@H]2[C@@H](O)c1ccnc2ccc(OC)cc12 [Quinidine],inhibition at 0.0073 µM,CYP2D6,69%
Nc1ccc(S(=O)(=O)Nc2ccnn2-c2ccccc2)cc1 [Sulfaphenazole],inhibition at 0.37 µM,CYP2C9,43%
C[C@]12CC[C@H]3[C@@H](CCC4=CC(=O)CC[C@@]43C)[C@@H]1CC[C@@H]2O [Testosterone],half-life,"Microsomal stability; human, microsomes",15.3 min
same,microsomal CLint,"Microsomal stability; human, microsomes",55.6 µL/min/mg
same,"Microsomal stability (remaining after 1 h), reference compound",Microsomal stability; tested in parallel,6.5%
C[C@@H]1CC[C@H]2[C@@H](C)C(=O)O[C@@H]3O[C@@]4(C)CC[C@@H]1[C@]32OO4 [artemisinin],effect on protein aggregation (ThT fluorescence),[8],did not have an observable effect
same,IC50,[9]; [12],10.8 nM
O=C1C(O)=C([C@H]2CC[C@H](c3ccc(Cl)cc3)CC2)C(=O)c2ccccc21 [atovaquone],effect on protein aggregation (ThT fluorescence),[8],did not have an observable effect
same,IC50,[9]; [12],1 nM
CCN(CC)CCCC(C)Nc1ccnc2cc(Cl)ccc12 (stereo not shown) [chloroquine],effect on protein aggregation (ThT fluorescence),[8],reduce protein aggregation
same,IC50,"[5]; Table S2, ref 10 (supplement list), read-out: IC50 P. falciparum (3D7) blood stages, reference compound",29.7 ± 6 nM
same,IC50,[9]; read-out: in vitro IC50 as determined in our experimental setting,7 nM
COc1cc(NC(C)CCCN)c2ncccc2c1 (stereo not shown) [primaquine],effect on protein aggregation (ThT fluorescence),[8],reduce protein aggregation
same,IC50,"[10]; Table S2, ref 10 (supplement list), read-out: IC50 P. falciparum early/stage V gametocytes, reference compound",18900 ± 2000 nM
same,IC50,"[10]; stage IV-V gametocytes, read-out: IC50 for P. falciparum gametocytes (primaquine)",~20000 nM
same,IC50,[11],~10000 nM
same,IC50,[9]; [12],3000 nM
